This note sets out measurements from ChEMBL document CHEMBL1156531, “Designer enediynes generate DNA breaks, interstrand cross-links, or both, with concomitant changes in the regulation of DNA damage responses” (2007).

The nature of test [1]: Induction of double-strand break in BamH1-linearized pBR322 plasmid DNA assessed as linear DNA under aerobic condition relative to C-1027. The conditions noted are these: Bacillus amyloliquefaciens.
In test [2] the test system is BSC-1. Description: Induction of DNA interstand cross-link in SV40-infected african green monkey BSC1 cells assessed as amount of double-stranded DNA remaining after denaturation after 4 hrs. Format: cell-based. Conditions: Betapolyomavirus macacae.
In test [3] the test system is HCT-116. Description: Ratio of IC50 for mock siRNA-treated human HCT116 cells to IC50 for siATR (ataxia telangiectasia mutated and Rad3 related)-treated human HCT116 cells after 3 days. The format is functional.
Test [4] relates to Bacillus amyloliquefaciens. Description: Induction of interstrand cross-link in BamH1-linearized pBR322 plasmid DNA assessed as amount of double-stranded DNA remaining after denaturation relative to C-1027.
Test [5] deals with BSC-1. Description: Induction of double-strand DNA break in SV40-infected african green monkey BSC1 cells assessed as amount of linear DNA after 4 hrs. Format: cell-based. Conditions: Betapolyomavirus macacae.
Test [6] addresses T1, Serine/threonine-protein kinase Chk1 (Homo sapiens) (UniProt O14757).
T1 sequence (whole entry): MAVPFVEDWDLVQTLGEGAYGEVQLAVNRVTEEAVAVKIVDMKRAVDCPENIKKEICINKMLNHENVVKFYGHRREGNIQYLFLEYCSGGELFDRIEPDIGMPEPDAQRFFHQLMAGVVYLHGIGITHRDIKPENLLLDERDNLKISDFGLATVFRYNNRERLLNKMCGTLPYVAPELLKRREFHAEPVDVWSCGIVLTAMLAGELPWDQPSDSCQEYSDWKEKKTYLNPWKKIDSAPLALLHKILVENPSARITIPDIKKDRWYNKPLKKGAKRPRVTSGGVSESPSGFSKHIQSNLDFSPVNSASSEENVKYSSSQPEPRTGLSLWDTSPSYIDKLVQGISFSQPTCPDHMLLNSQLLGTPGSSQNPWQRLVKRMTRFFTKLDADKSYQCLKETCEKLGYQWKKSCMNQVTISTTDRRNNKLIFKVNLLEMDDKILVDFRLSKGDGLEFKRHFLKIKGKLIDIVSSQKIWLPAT
Description: Decrease in Chk1-Ser-345 phosphorylation in ataxia telangiectasia mutated and Rad3 related-deficient human HCT116 cells at 3 nM after 1 hr by Western blotting. Format: cell-based. Conditions: HCT-116. For orientation: In western blotting, separated proteins are transferred to a membrane and probed.

Test [7] deals with HCT-116. Description: Induction of double-strand DNA break in human HCT116 cells after 4 hrs by comet assay. The format is cell-based.
Test [8] deals with Bacillus amyloliquefaciens. Description: Induction of interstrand cross-link in BamH1-linearized pBR322 plasmid DNA assessed as amount of double-stranded DNA remaining at 130 nM after 4 hrs under anaerobic cell-free condition.
The test system of test [9] is Bacillus amyloliquefaciens. Description: Induction of interstrand cross-link in BamH1-linearized pBR322 plasmid DNA assessed as amount of double-stranded DNA remaining at 13 nM after 4 hrs under anaerobic cell-free condition.
The test system of test [10] is BSC-1. Description: Induction of DNA interstand cross-link in SV40-infected african green monkey BSC1 cells assessed as amount of double-stranded DNA remaining after denaturation at 40 nM after 4 hrs. Format: cell-based. Conditions: Betapolyomavirus macacae.
The target in test [11] is T1, Serine/threonine-protein kinase Chk1 (Homo sapiens). Description: Decrease in Chk1-Ser-345 phosphorylation in ataxia telangiectasia mutated and Rad3 related-deficient human HCT116 cells at 1 nM after 1 hr by Western blotting. Format: cell-based. Conditions: HCT-116.
Test [12] deals with HCT-116. Description: Induction of DNA interstand cross-link in human HCT116 cells after 4 hrs by comet assay. Format: cell-based.
The subject of test [13] is BSC-1. Description: Induction of double-strand DNA break in SV40-infected african green monkey BSC1 cells assessed as amount of linear DNA at 8 nM after 4 hrs. The format is cell-based. The conditions noted are these: Betapolyomavirus macacae.
The subject of test [14] is BSC-1. Description: Increase in DNA interstand cross-link in SV40-infected african green monkey BSC1 cells assessed as amount of double-stranded DNA remaining after denaturation at 200 nM after 4 hrs. Format: cell-based. Conditions: Betapolyomavirus macacae.
In test [15] the test system is BSC-1. Description: Induction of double-strand DNA break in SV40-infected african green monkey BSC1 cells assessed as amount of linear DNA at 10 uM after 4 hrs. The format is cell-based. Conditions: Betapolyomavirus macacae.

Activity calls are given as the source filed them. The rule behind the calls is not given here. Bounds are passed on as bounds.

For `C=C1Oc2cc(OC)cc(C(=O)O[C@H]3COC(=O)C[C@H](N)c4ccc(c(Cl)c4)O[C@@H]4C#C/C=C/3C#CC3=CC=C[C@@]34O[C@@H]3OC(C)(C)[C@@H](N(C)C)[C@@H](O)[C@H]3O)c2NC1=O`, in [1], the Activity was found to be 0.033%.

`C=C1Oc2cc(OC)cc(C(=O)O[C@H]3COC(=O)C[C@H](N)c4ccc(c(O)c4)O[C@@H]4C#C/C=C/3C#CC3=CC=C[C@@]34O[C@@H]3OC(C)(C)[C@@H](N(C)C)[C@@H](O)[C@H]3O)c2NC1=O`: the Activity was 0.25% in test [1], less than 0.003% in test [4] and “Dose-dependent effect” with BSC-1 [5]. Moreover, the outcome in the test with BSC-1 [2] was inactive. In addition, in the test with HCT-116 [3], the “Ratio IC50” value is on record as 1.3. The result in [6] was Active.

For the compound `C=C1Oc2cc(OC)cc(C(=O)O[C@H]3COC(=O)C[C@H](N)c4cc(O)c(c(Cl)c4)O[C@@H]4C#C/C=C/3C#CC3=CC=C[C@@]34O[C@@H]3OC(C)(C)[C@@H](N(C)C)[C@@H](O)[C@H]3O)c2NC1=O`, the Activity in test [1] was 1%; in test [4] it was 1%; in test [8] it was more than 30%; in [9], 13%; in the test on BSC-1 [13], 20%. Also, the result in the test on HCT-116 [7] was inactive. Besides, the “Ratio IC50” value with HCT-116 [3] is on record as 1.1. Besides, the result (in the test on BSC-1 [10]; in test [11]; with HCT-116 [12]; in the test on BSC-1 [14]) was Active.

`C=C1Oc2cc(O)cc(C(=O)O[C@H]3COC(=O)C[C@H](N)c4cc(O)c(c(Cl)c4)O[C@@H]4C#C/C=C/3C#CC3=CC=C[C@@]34O[C@@H]3OC(C)(C)[C@@H](N(C)C)[C@@H](O)[C@H]3O)c2NC1=O`: the Activity in test [1] turned out to be 0.02%; in [4], 1%. Besides, the outcome in the test on HCT-116 [7] and with BSC-1 [15] was inactive. In addition, the “Ratio IC50” value in the test on HCT-116 [3] is on record as 2.5. For the same compound, the outcome in the test with HCT-116 [12] and in the test on BSC-1 [14] was Active.
